This note sets out measurements from PMC4761355, “Pre-clinical evaluation of eight DOTA coupled gastrin-releasing peptide receptor (GRP-R) ligands for in vivo targeting of receptor-expressing tumors” (EJNMMI Research, 2016).

The target in data set [1] is T1, gastrin-releasing peptide receptor (GRP-R) on PC-3 human prostate cancer cells (Homo sapiens, UniProt P30550).
T1 construct: endogenous in cells; host or cells: PC-3 human prostate cancer cells
The data set can be described thus: Saturation binding experiments on whole PC-3 cells with 111In-labeled DOTA-PEG4-BN conjugates. The note with it: 4 °C; for B max (binding sites/cell) *10^5: 111In-labeled. The protocol:
DOTA-PEG4-BN conjugates were studied in vitro performing saturation binding experiments on whole cells. The DOTA coupled derivatives were labeled in Eppendorf tubes containing 10 μL of ^111InCl3 (50–150 KBq/μL), 1 nmol of peptide (10 μM final concentration), and sodium acetate buffer (0.4 M, pH 5) adjusted to a final volume of 100 μL. The solution was incubated for 30 min at 95 °C in a heating block. Silica gel thin layer chromatography using 0.1 N sodium citrate (pH 5) as mobile phase was utilized for quality control. […] Saturation of free chelators with cold indium was not performed. Confluent PC-3 human prostate cancer cells were seeded in six-well plates (~1.0 × 10^6 cells) 24 h before starting the experiments. Increasing concentrations of the ^111In-DOTA-peptide ranging from 50 to 0.05 nM were assigned to different wells. For blocking experiments, excess of the respective unlabeled peptide was used. For each radioligand, triplicates were prepared for every concentration, for both total binding and nonspecific binding. Before adding the radioligands to the wells, the plates were placed on ice for 30 min. After adding the radioligands and the blocking for nonspecific binding, the plates were incubated for 1 h at 4 °C. Afterwards, the binding buffer was removed and the cells were washed twice with ice-cold phosphate-buffered saline (PBS; pH 7.4). Cell-bound radioactivity was subsequently recovered by trypsinization of the wells. Radioactivity in the bound and free fractions was determined with a WIZARD gamma counter (Wallac, Turku, Finland). Specific binding was calculated by subtracting nonspecific from total binding at each concentration of radioligand. Affinity (Kd) and binding site density (Bmax) were calculated from Scatchard plots using Prism software (GraphPad Software Inc.).
Saturation binding experiments were performed on PC-3 cells at 4 °C.

For data set [2], the system named is PC-3 xenografts. The data set can be described thus: Biodistribution in nude mice bearing subcutaneous PC-3 xenografts. It is filed as in vivo, CD1 nude mice. As for the experimental part:
(§1) For animal experiments, the institutional and national guide for the care and use of laboratory animals was followed. CD1 nude mice (n = 36, female, 6 weeks old, 18-22 g body weight) were subcutaneously injected in the right thigh with 2 × 10^6 PC-3 cells in 300 μl of a medium-to-matrigel solution (50:50, v:v, BD Biosciences). […] DOTA-PEG4-BN conjugates were radiolabelled with ^111In as described elsewhere, and 1.85 MBq (0.25 μg, 7.4 MBq/μg in 100 μl NaCl) of radiopharmaceutical was injected in the tail vein of each animal. Injected dose was determined by counting the syringe before and after injection. At 1 h post injection, three mice per group were anesthetized and placed on a horizontal support for planar imaging. The same procedure was repeated at 6 h and 24 h post injection. Images were acquired for 60 to 90 s with a high-resolution scintigraphic camera equipped with a square tungsten collimator integrated with a CsI(Tl) scintillation structure, coupled to a Hamamatsu […] Flat Panel Position Sensitive Photomultiplier Tube (PSPMT), a pure tungsten shielding housing, a charge readout electronics, and a data acquisition system for online image display. Region of interest (ROI) analysis was performed by drawing a region over the visible tumor (target) and copying it to the opposite thigh (background). The counts in the tumor ROI divided by the counts in the background ROI provided tumor-to-background (T/B) ratios. After each imaging session, mice were euthanized. The organs and the tumors were excised and weighed, and the radioactivity was determined using a single well γ-counter. Results were expressed as percentage of injected dose per gram (%ID/g) of tissue.

Data set [3] in a line: Serum stability of 177Lu-labeled peptides in human serum. Type of data set: in vitro ADME. The note with it: human serum (freshly prepared), 37 °C. The protocol:
Quality controls to determine the labeling yield and the radiochemical purity were performed using radio-HPLC. Radiolabeled peptides were utilized without further purification. […] The mixture was incubated in a 5 % CO2, 37 °C. At different time points, 100 μL aliquots (in triplicates) were removed and treated with 200 μL of EtOH to precipitate serum proteins. Samples were then centrifuged for 15 min at 5000 rpm (2655g). After centrifugation, 50 μL of supernatant was removed and counted in a γ-well counter; the sediment was washed twice with 1 mL of EtOH and counted. The activity in the supernatant was compared with the activity in the pellet to obtain the percentage of peptide not bound to proteins or radiometal transferred to serum proteins. The supernatant was also analyzed with radio-HPLC (eluents: A = 0.1 % trifluoroacetic acid in water and B = acetonitrile; gradient 0–25 min 95–50 % B) to determine the relative amount of intact peptide and its metabolites in the serum. The half-life was calculated fitting a first-order reaction to the experimental data (Equation 1) using Prism software (GraphPad Software Inc.).

Data set [4] has as its system PC-3 xenografts. The data set can be described thus: Gamma camera planar imaging, tumor-to-background ROI analysis in mice with PC-3 xenografts. Type of data set: in vivo, CD1 nude mice. The protocol: as §1, with “Region of interest (ROI) analysis was performed by drawing a region over the visible tumor (target) and copying it to the opposite thigh (background). The counts in the tumor ROI divided by the counts in the background ROI provided tumor-to-background (T/B) ratios. After each imaging session, mice were euthanized.” left out

Data set [5] can be described thus: Biodistribution in nude mice bearing subcutaneous PC-3 xenografts. It is filed as in vivo, CD1 nude mice. As to conditions: female, CD1 nude, mouse, blood, iv, 0.25 μg, total radioactivity; 111In-labeled, 1 h post injection. As for the experimental part: as §1
The mark [6] stands for this setting: 111In-labeled, i.v., 1, 6, 24 h.
The mark [7] stands for this setting: first-order fit, read-out: Serum half-life (converted).

Structures are written as SMILES. Like-named read-outs stand apart in the source and are kept apart here. Where a SMILES comes first, the peptide text is derived from it. [ ]: non-standard residue; d: D form. The star is where a group is joined. DOTA = O=C(O)CN1CCN(CC(=O)O)CCN(CC(=O)*)CCN(CC(=O)O)CC1; Sta = CC(C)C[C@H](N)[C@@H](O)CC(=O)O; Cha = N[C@@H](CC1CCCCC1)C(=O)O; Nle = CCCC[C@H](N)C(=O)O; AEEA = NCCOCCOCC(=O)O; Sar = CNCC(=O)O

T1 sequence (P30550 whole entry): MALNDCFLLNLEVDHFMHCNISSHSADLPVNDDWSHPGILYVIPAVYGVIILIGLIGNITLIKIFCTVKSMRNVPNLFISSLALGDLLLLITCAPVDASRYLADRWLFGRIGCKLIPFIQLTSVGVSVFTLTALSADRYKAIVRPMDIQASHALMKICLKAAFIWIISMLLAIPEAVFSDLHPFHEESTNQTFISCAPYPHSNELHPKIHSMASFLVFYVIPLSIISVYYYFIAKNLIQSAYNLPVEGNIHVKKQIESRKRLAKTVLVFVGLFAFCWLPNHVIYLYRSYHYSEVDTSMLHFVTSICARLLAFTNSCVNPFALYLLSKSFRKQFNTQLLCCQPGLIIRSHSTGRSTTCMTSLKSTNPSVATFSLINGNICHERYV

Turning to `CSCC[C@H](NC(=O)[C@H](CC(C)C)NC(=O)[C@H](Cc1c[nH]cn1)NC(=O)CNC(=O)[C@@H](NC(=O)[C@H](C)NC(=O)[C@H](Cc1c[nH]c2ccccc12)NC(=O)[C@H](CCC(N)=O)NC(=O)COCCOCCNC(=O)COCCOCCNC(=O)CN1CCN(CC(=O)O)CCN(CC(=O)O)CCN(CC(=O)O)CC1)C(C)C)C(N)=O` [BN1], in data set [1], the “B max (binding sites/cell) *10^5” value amounted to 2.45 ± 0.73 binding sites/cell *10^5. Moreover, the “Tumor targeting / uptake in PC-3 xenografts (in words)” value (“Tumor targeting / uptake” below) in the data set on PC-3 xenografts [2] (setting [6]) was “rather poor”. In addition, the “Blood clearance / circulating half-life (in words)” value in the data set with PC-3 xenografts [2] (mouse, in vivo, iv) is “very rapid blood clearance”.
In the case of `CCCC[C@H](NC(=O)[C@H](CC1CCCCC1)NC(=O)[C@H](Cc1c[nH]cn1)NC(=O)CNC(=O)[C@@H](NC(=O)[C@H](C)NC(=O)[C@H](Cc1c[nH]c2ccccc12)NC(=O)[C@H](CCC(N)=O)NC(=O)COCCOCCNC(=O)COCCOCCNC(=O)CN1CCN(CC(=O)O)CCN(CC(=O)O)CCN(CC(=O)O)CC1)C(C)C)C(N)=O` [BN2, -Gln-Trp-Ala-Val-Gly-His-Cha-Nle-NH2] ({DOTA-AEEA-AEEA}-QWAVGH[Cha][Nle]-NH2), the “B max (binding sites/cell) *10^5” value in data set [1] came out at 4.10 ± 1.23 binding sites/cell *10^5. The half-life at 0.6 nmol/mL in data set [3] (setting [7]) is roughly 20 h.
As to `CCCC[C@H](NC(=O)[C@H](CC1CCCCC1)NC(=O)[C@H](Cc1c[nH]cn1)NC(=O)CNC(=O)[C@@H](NC(=O)[C@H](C)NC(=O)[C@H](Cc1c[nH]c2ccccc12)NC(=O)[C@H](CCC(N)=O)NC(=O)COCCOCCNC(=O)COCCOCCNC(=O)CN1CCN(CC(=O)O)CCN(CC(=O)O)CCN(CC(=O)O)CC1)C(C)C)C(=O)N[C@@H](CCC(=O)O)C(N)=O` [BN3, -Gln-Trp-Ala-Val-Gly-His-Cha-Nle-Glu-NH2] ({DOTA-AEEA-AEEA}-QWAVGH[Cha][Nle]E-NH2), in data set [1], the “Specific binding to PC-3 cells (in words)” value was “no specific binding was detectable”. The half-life at 0.6 nmol/mL in data set [3] (setting [7]) is 40.7 h.
On to `CC(C)C[C@H](NC(=O)C[C@H](O)[C@H](CC(C)C)NC(=O)[C@H](Cc1c[nH]cn1)NC(=O)CNC(=O)[C@@H](NC(=O)[C@H](C)NC(=O)[C@H](Cc1c[nH]c2ccccc12)NC(=O)[C@H](CCC(N)=O)NC(=O)COCCOCCNC(=O)COCCOCCNC(=O)CN1CCN(CC(=O)O)CCN(CC(=O)O)CCN(CC(=O)O)CC1)C(C)C)C(N)=O` [BN4, -Gln-Trp-Ala-Val-Gly-His-Sta-Leu-NH2] ({DOTA-AEEA-AEEA}-QWAVGH[Sta]L-NH2), for which, in the data set with PC-3 xenografts [4] (111In-labeled, tumor ROI vs opposite thigh), the “Tumor-to-background (T/B) ratios in vivo (in words)” value is on record as “least favorable of all peptides”. Further, the “B max (binding sites/cell) *10^5” value in data set [1] is recorded as 5.54 ± 1.56 binding sites/cell *10^5. For the same molecule, in data set [3] (setting [7]), the half-life at 0.6 nmol/mL was 224 h. In the data set with PC-3 xenografts [2] (setting [6]), the “Blood clearance / circulating half-life (in words)” value is listed as “longest circulating half-life of all tested compounds” and the “Tumor targeting / uptake” value is “very high initial uptake that dropped at later time points”. Besides, in data set [5], the tissue uptake at 1 h was roughly 5 %ID/g.
For the molecule `CC(C)C[C@H](NC(=O)C[C@H](O)[C@H](CC(C)C)NC(=O)[C@H](Cc1c[nH]cn1)NC(=O)CN(C)C(=O)[C@@H](NC(=O)[C@H](C)NC(=O)[C@H](Cc1c[nH]c2ccccc12)NC(=O)[C@H](CCC(N)=O)NC(=O)COCCOCCNC(=O)COCCOCCNC(=O)CN1CCN(CC(=O)O)CCN(CC(=O)O)CCN(CC(=O)O)CC1)C(C)C)C(N)=O` [BN5, -Gln-Trp-Ala-Val-NMeGly-His-Sta-Leu-NH2] ({DOTA-AEEA-AEEA}-QWAV[Sar]H[Sta]L-NH2), the “B max (binding sites/cell) *10^5” value in data set [1] is on record as 1.56 ± 0.39 binding sites/cell *10^5.
For `CC(C)C[C@H](NC(=O)C[C@H](O)[C@H](CC(C)C)NC(=O)[C@H](Cc1c[nH]cn1)NC(=O)CNC(=O)[C@@H](NC(=O)[C@H](C)NC(=O)[C@H](Cc1c[nH]c2ccccc12)NC(=O)[C@H](CCC(N)=O)NC(=O)[C@@H](Cc1ccccc1)NC(=O)COCCOCCNC(=O)COCCOCCNC(=O)CN1CCN(CC(=O)O)CCN(CC(=O)O)CCN(CC(=O)O)CC1)C(C)C)C(N)=O` [BN6, -DPhe-Gln-Trp-Ala-Val-Gly-His-Sta-Leu-NH2], in data set [3] (setting [7]), the half-life at 0.6 nmol/mL is 208 h.
Take `CCCC[C@H](NC(=O)[C@H](CC1CCCCC1)NC(=O)[C@H](Cc1c[nH]cn1)NC(=O)CNC(=O)[C@@H](NC(=O)[C@H](C)NC(=O)[C@H](Cc1c[nH]c2ccccc12)NC(=O)[C@H](CCC(N)=O)NC(=O)[C@@H](Cc1ccccc1)NC(=O)COCCOCCNC(=O)COCCOCCNC(=O)CN1CCN(CC(=O)O)CCN(CC(=O)O)CCN(CC(=O)O)CC1)C(C)C)C(N)=O` [BN7, -DPhe-Gln-Trp-Ala-Val-Gly-His-Cha-Nle-NH2]: the half-life at 0.6 nmol/mL in data set [3] (setting [7]) is roughly 20 h. In addition, in the data set on PC-3 xenografts [2] (setting [6]), the “Blood clearance / circulating half-life (in words)” value is listed as “very rapid blood clearance” and the “Tumor targeting / uptake” value is given as “overall poor targeting to the receptor-positive xenografts”.
On to `CC(C)C[C@H](NC(=O)C[C@H](O)[C@H](CC(C)C)NC(=O)[C@H](Cc1c[nH]cn1)NC(=O)CN(C)C(=O)[C@@H](NC(=O)[C@H](C)NC(=O)[C@H](Cc1c[nH]c2ccccc12)NC(=O)[C@H](CCC(N)=O)NC(=O)[C@@H](Cc1ccccc1)NC(=O)COCCOCCNC(=O)COCCOCCNC(=O)CN1CCN(CC(=O)O)CCN(CC(=O)O)CCN(CC(=O)O)CC1)C(C)C)C(N)=O` [BN8, DOTA-PEG-DPhe-Gln-Trp-Ala-Val-NMeGly-His-Sta-Leu-NH2], for which, in the data set with PC-3 xenografts [4] (gamma camera, 6 h post injection), the “Imaging contrast of tumor uptake (in words)” value is recorded as “best contrast of tumor uptake compared to other organs”. The values for the half-life at 0.6 nmol/mL in data set [3] (setting [7]) and in data set [3] (read-out: Serum/plasma half-life) were 414 h and greater than 360 h, respectively. Moreover, in the data set on PC-3 xenografts [2] (setting [6]), the “Tumor targeting / uptake” value was “highest tumor uptake”.
